The source of these data is ChEMBL document CHEMBL2216751, “PI3Kδ and PI3Kγ as targets for autoimmune and inflammatory diseases” (J Med Chem, 2012).

Some results are limits rather than exact numbers.

The species entered for assay [1] is Mus musculus. Description: Antiarthritic activity in adjuvant-induced rheumatoid arthritis mouse model assessed as reduction in disease clinical score. Type of assay: functional. The arrangement: scale not given: the % may be the effect or the level left.
The subject of another assay is Sus scrofa. Description: Cardioprotective activity in pig MI model assessed as reduction in coronary artery occlusion at 0.5 mg/kg, iv administered as single bolus dose post 90 mins of reperfusion measured after 24 hrs. Type of assay: functional. The arrangement: scale not given: the % may be the effect or the level left.
Assay [2] has as its system Rattus norvegicus. In words: Cardioprotective activity in Sprague-Dawley rat MI model assessed as reduction in coronary artery occlusion at 0.05 to 5 mg/kg, iv administered as single bolus dose post 60 mins of reperfusion measured after 24 hrs. It counts as functional. Also on record: scale not given: the % may be the effect or the level left. To be noted: dose mg/kg 0.05-5.

In assay [3] the test system is Rattus norvegicus. In words: Antiinflammatory activity in Sprague-Dawley rat assessed as reduction in PAF/dextran-induced hind paw edema at 5 mg/kg. It counts as functional. The arrangement: scale not given: the % may be the effect or the level left.
Assay [4] concerns Mus musculus. In words: Antiinflammatory activity in LPS-induced COPD BALB/c mouse model assessed as reduction in pulmonary neutrophilia at 0.4 % administered as aerosolized formulation. It counts as functional. The arrangement: scale not given: the % may be the effect or the level left.
Assay [5] concerns Mus musculus. Description: Antiinflammatory activity in cigarette smoking-induced COPD BALB/c mouse model assessed as reduction in pulmonary neutrophilia at 0.4 % administered as aerosolized formulation. The arrangement: scale not given: the % may be the effect or the level left. It counts as functional.
The subject of assay [6] is Mus musculus. In words: Antiinflammatory activity in ovalbumin-sensitized mouse asthma model assessed as reduction in lung eosinophils at 0.4 % administered as aerosolized formulation for 12 to 14 days. Type of assay: functional. The arrangement: scale not given: the % may be the effect or the level left.
Assay [7] concerns Mus musculus. Description: Antiinflammatory activity in ovalbumin-sensitized mouse asthma model assessed as reduction in airway-hyper responsiveness at 0.4 % administered as aerosolized formulation for 12 to 14 days. Also on record: scale not given: the % may be the effect or the level left. It counts as functional.
Assay [8] has as its target T1, Phosphatidylinositol 4,5-bisphosphate 3-kinase catalytic subunit delta isoform (Homo sapiens, UniProt O00329).
T1 sequence (O00329 whole entry): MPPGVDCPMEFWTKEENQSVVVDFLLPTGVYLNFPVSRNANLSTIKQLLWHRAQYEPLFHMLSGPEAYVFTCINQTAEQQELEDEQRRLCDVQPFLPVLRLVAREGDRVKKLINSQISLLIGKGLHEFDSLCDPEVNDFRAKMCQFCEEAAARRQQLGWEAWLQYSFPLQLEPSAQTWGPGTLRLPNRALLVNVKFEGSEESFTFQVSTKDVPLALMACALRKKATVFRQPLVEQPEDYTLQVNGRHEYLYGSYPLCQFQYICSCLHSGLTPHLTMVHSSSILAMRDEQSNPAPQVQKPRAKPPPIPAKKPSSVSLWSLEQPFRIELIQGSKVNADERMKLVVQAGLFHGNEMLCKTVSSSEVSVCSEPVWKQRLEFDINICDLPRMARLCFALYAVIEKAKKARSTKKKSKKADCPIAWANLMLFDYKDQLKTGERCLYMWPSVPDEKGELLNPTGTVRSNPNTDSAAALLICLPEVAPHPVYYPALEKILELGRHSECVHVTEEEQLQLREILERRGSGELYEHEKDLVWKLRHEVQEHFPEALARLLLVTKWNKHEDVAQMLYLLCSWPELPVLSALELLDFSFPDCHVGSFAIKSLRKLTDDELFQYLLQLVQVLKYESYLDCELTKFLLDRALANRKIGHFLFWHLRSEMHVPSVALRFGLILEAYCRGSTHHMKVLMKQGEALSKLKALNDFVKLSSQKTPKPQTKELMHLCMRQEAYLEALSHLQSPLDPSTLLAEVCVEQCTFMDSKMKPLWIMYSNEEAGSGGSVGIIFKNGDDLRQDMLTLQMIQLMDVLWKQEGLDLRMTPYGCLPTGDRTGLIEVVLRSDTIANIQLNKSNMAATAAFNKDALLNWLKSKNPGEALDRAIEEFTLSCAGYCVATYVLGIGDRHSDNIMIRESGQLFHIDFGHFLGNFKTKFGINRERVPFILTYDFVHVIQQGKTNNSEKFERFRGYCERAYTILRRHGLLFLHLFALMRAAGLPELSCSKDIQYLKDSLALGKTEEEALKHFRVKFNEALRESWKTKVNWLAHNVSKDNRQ
To be noted: read-out: IC50.

Assay [9] has as its system Rattus norvegicus. In words: Antiinflammatory activity in rat assessed as inhibition of Streptococcal cell wall-induced rat paw edema. Type of assay: functional. As to conditions: read-out: ID50 (the source's name).
Assay [10] deals with Rattus norvegicus. Description: Antiinflammatory activity in rat assessed as inhibition of Streptococcal cell wall-induced rat paw edema at 30 mg/kg. It counts as functional.
The target of assay [11] is T1, Phosphatidylinositol 4,5-bisphosphate 3-kinase catalytic subunit delta isoform. Description: Inhibition of PI3Kdelta in human PBMC assessed as inhibition of anti-IgM-induced AKT phosphorylation by FACS analysis.
Assay [12] has the same target. In words: Inhibition of PI3Kdelta using phosphatidylinositol as substrate by gamma33P[ATP] incorporation assay.
For assay [13], the target named is T2, Phosphatidylinositol 4,5-bisphosphate 3-kinase catalytic subunit delta isoform (Mus musculus, UniProt O35904).
T2 sequence (O35904 whole entry): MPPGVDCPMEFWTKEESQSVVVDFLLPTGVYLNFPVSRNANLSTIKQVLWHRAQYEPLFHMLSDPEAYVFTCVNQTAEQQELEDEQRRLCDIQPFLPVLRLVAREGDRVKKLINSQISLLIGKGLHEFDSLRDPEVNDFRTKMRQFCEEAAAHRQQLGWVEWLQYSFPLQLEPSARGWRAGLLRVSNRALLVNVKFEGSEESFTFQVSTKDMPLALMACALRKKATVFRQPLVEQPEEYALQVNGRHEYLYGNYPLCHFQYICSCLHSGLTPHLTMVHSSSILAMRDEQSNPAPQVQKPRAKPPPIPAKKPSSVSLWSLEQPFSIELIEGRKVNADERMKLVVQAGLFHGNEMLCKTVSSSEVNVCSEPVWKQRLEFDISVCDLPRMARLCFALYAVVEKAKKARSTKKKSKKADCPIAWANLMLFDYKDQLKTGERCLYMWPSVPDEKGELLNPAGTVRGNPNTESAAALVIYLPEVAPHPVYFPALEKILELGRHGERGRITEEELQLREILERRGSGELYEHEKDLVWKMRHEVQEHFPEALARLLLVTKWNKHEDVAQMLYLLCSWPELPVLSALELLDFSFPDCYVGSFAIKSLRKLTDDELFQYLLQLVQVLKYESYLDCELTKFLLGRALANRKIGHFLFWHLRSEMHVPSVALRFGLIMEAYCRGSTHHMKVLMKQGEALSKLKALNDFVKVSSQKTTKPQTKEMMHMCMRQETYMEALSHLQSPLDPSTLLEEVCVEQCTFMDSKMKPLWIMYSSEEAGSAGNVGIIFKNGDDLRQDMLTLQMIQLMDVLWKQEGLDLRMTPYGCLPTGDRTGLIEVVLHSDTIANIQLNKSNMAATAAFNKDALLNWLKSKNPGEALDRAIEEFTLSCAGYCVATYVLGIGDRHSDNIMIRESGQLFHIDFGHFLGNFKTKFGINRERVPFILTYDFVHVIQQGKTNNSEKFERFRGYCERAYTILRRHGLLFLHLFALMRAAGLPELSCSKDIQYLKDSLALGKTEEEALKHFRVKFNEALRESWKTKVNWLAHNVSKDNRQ
Description: Inhibition of PI3Kdelta-mediated AKT phosphorylation in mouse Raw 264.7 cells by immunoassay. Type of assay: cell-based.

For assay [14], the target named is T1, Phosphatidylinositol 4,5-bisphosphate 3-kinase catalytic subunit delta isoform. Description: Inhibition of PI3Kdelta assessed as inhibition of H2O2-induced AKT phosphorylation by cell-based assay.

Consider `O=C1NC(=O)/C(=C/c2ccc3nccnc3c2)S1`, for which the Activity in the assay filed under Mus musculus [1] is 40%.
For the compound `Nc1nc(N)c2nc(-c3cccc(O)c3)c(-c3cccc(O)c3)nc2n1` [TG100-115], the Activity in the assay on Sus scrofa is given as 35%; in the assay with Rattus norvegicus [2] it was “>=40%”; with Rattus norvegicus [3], “>=62%”; with Mus musculus [4], 42%; with Mus musculus [5], “>=81%”; with Mus musculus [6] it was 79%. In the assay with Mus musculus [7], the Activity came out at 50%.
`O=C(Nc1nn[nH]n1)c1cnc(N2CCOCC2)nc1OC1CCCCCC1`: in assay [8], the 50% inhibitory concentration (IC50) is 197 nM. The ED50 with Rattus norvegicus [9] is 16.3 mg/kg. For the same compound, in the assay on Rattus norvegicus [10], the inhibition in vivo at 30 mg/kg was 52%.
Regarding `COc1cc(Nc2nc3ccccc3nc2NS(=O)(=O)c2ccc(CN(C)C)cc2)cc(OC)c1`, in [11], the IC50 stood at 16 nM.
For the compound `O=c1cc(N2CCOCC2)oc2c(-c3ccccc3)cccc12` [LY-294002], half-maximal inhibition in [12] (IC50) required 1050 nM.
On to `O=C1NC(=O)/C(=C/c2ccc3ncnc(N4CCC(C(F)(F)F)CC4)c3n2)S1`, for which the IC50 was 6 nM in assay [8] and under 10 nM in [13].
Take `C#Cc1cccc2nc(Cn3nc(-c4cccc(O)c4)c4c(N)ncnc43)n(Cc3cccc(OC)c3)c(=O)c12`: in assay [14], the 50% inhibitory concentration (IC50) worked out at 570 nM.

By IC50 is commonly meant the midpoint of a concentration-inhibition curve. Usually inhibition in vivo stands for how much of the control response was suppressed.
